Test: Solubility of barbituric acid in CD3CN, free and with bisamidopyridine dendrimers
Type: physicochemical
Text: Chemical shift changers for the complexed NH moieties, even in this competing solvent, corresponded to ca. 0.1 ppm for both generation dendrimers.

Structure (SMILES): O=C1CC(=O)NC(=O)N1 [barbituric acid]
- solubility in CD3CN (free): sparingly soluble
- solubility in CD3CN in the presence of the bisamidopyridine dendrimers (with bisamidopyridine dendrimers): freely soluble to the limit of complementary complexation

Source: US6566409B1, “Lock and key micelles” (University of South Florida, priority 1994, dated 2003)
